In US10188671B2, “Boron-dipyrrin complex and medicament containing the same” (JAPAN SCIENCE AND TECHNOLOGY AGENCY, priority 2015, dated 2019):

How the values were obtained:
[1] = Optical properties in methanol; format: physicochemical
Protocol: The optical properties (in methanol) of compounds 2 to 4 synthesized were determined (Table 1). The compounds 2 to 4 each have maximum absorption at a wavelength at or near 500 nm and emit fluorescence at 509 nm. It was observed that introduction of a perfluoroalkyl group caused some decreases in light absorption coefficients, but little change in their fluorescence quantum yield.

[2] = Photostability under light irradiation (500 nm, methanol); format: physicochemical; conditions: methanol solution, light of 500 nm, 37° C., FIG. 2
Protocol: Next, a methanol solution containing each of compounds 2 to 4 was irradiated with light of 500 nm, and incubated at 37° C. Then, a change in the time course of the absorbance at the maximum light absorption wavelength was measured to compare their photostability (FIG. 2). […] By contrast, compounds 3 and 4, having a perfluoroalkyl group, took 2 hours or longer until complete photofading. […] Reaction with singlet oxygen seems to be primarily responsible for the photofading under visible light irradiation. So, the photostability of the present compounds was considered from the viewpoint of the reactivity with singlet oxygen. First, the HOMO/LUMO levels of compounds 2 to 4 were calculated in accordance with a DFT algorithm (FIG. 3). […] As the HOMO level increases, the compounds are more susceptible to oxygenation by singlet oxygen. Thus, this calculation results agree with the results of the photostability test. […] This reflects the fact that the maximum absorption wavelength is unchanged.

Aβ1-42 [3] = target: T1, Aβ1-42 (Homo sapiens, UniProt P05067); test: Aβ peptide selectivity test: oxygenation of Aβ1-42; format: biochemical; conditions: 20 μM, pH 7.4, pre-incubated 3 hours, 37° C., 30 min, LED 595 nm, FIG. 9
T1 sequence (P05067 672-713 limits assumed): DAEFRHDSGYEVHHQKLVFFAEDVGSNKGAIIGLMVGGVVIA
Protocol: (§1) Compound 14 was used to investigate whether or not a compound of the present invention was able to selectively oxygenate Aβ. First, compound 14 (20 μM) was added to phosphate buffer solutions (pH 7.4) each containing Aβ1-42 (20 μM), angiotensin IV (20 μM) or a methionine enkephalin (20 μM), which solutions had been pre-incubated for 3 hours. The mixtures were incubated at 37° C. for 30 min under LED light irradiation (at a wavelength of 595 nm). Then, a mass spectrometer (MALDI-TOF MS) was used to follow the reaction. Three model peptides having a residue capable of being oxygenated were selected, including angiotensin IV (AT-4), met-enkephalin (ME), and somatostatin (Sat). These three peptides were subjected to the same oxygenation conditions as for Aβ1-42 (FIG. 9).

[4] = test system: angiotensin IV (AT-4), met-enkephalin (ME), and somatostatin (Sat); test: Aβ peptide selectivity test: oxygenation of non-amyloid model peptides; format: biochemical; conditions: same oxygenation conditions as for Aβ1-42, FIG. 9
Protocol: as §1

[5] = Absorption spectrum measurement (Test Example 3); format: physicochemical; conditions: for shift of maximum absorption wavelength to the long-wavelength side: 8 vs compound 9, 11 vs F on boron, 12 with R^6 iodine; for Absorbance λmax: Table 2
Protocol: Each absorption spectrum was measured (Table 2). The maximum absorption wavelength of compound 8, in which the dimethylamino phenyl group of compound 9 was changed to a julolidine group, was shifted to the long-wavelength side by 30 nm than that of compound 9. […] The maximum absorption wavelength of compound 12, in which R^6 was iodine, was shifted to the long-wavelength side by 20 nm. This allowed the compound to be efficiently excited by light with a longer wavelength of over 650 nm. In the cases of the carboxyl group- or sulfonic acid group-substituted tetrahydroquinoline derivatives (compounds 13 to 16) so as to introduce a water-soluble substituent, the absorption wavelength was shifted to the short-wavelength side by about 10 nm than that of the julolidine-substituted derivative. It can be deduced from the above results that as the lone electron pair of the nitrogen atom is arranged more stably on the same plane as that of the benzene ring due to the condensed ring structure of the julolidine or tetrahydroquinoline, the absorption wavelength tends to be shifted more to the long-wavelength side.

Aβ1-42 [6] = target: T1, Aβ1-42; test: In vitro Aβ1-42 oxygenation in phosphate buffer under 595 nm light, MALDI-TOF MS; format: biochemical; conditions: for Aβ1-42 oxygenation activity / rate of oxygenation of Aβ1-42: phosphate buffer pH 7.4, 37° C., light at 595 nm, FIG. 5
Protocol: (1) To check whether or not the compounds synthesized actually had Aβ oxygenation activity, in vitro oxygenation experiments were carried out using Aβ1-42 as a substrate. Compound 12 (20 μM) was added to a phosphate buffer solution (pH 7.4) containing Aβ1-42 (20 μM), and the mixture was incubated at 37° C. under LED light irradiation (at a wavelength of 595 nm). Then, a mass spectrometer (MALDI-TOF MS) was used to follow the reaction. Before the light irradiation, native Aβ1-42 and Na^+ adducts were primarily observed. […] (2) The Aβ1-42 oxygenation activities of compounds 8, 11, and 12 were compared (FIG. 5). First, 0.1% TFA aqueous solution containing o-acyliso-Aβ1-42 was diluted with a phosphate buffer solution (PB) (10 mM, pH 7.4) to prepare a native Aβ1-42 solution. To the resulting solution was added a DMSO catalyst stock solution (1.0 M). While incubated at 37° C., the mixture was irradiated with light at 595 nm. […] The heavy metal effect seems to enhance the efficiency of generating singlet oxygen.

| SMILES | Absorbance λmax [1] [nm] | Emission λmax [1] [nm] | Φfl (fluorescence quantum yield) [1] | ϵ (light absorption coefficient) [1] [M⁻¹ cm⁻¹] | shift of maximum absorption wavelength to the long-wavelength side [5] | Absorbance λmax [5] [nm] | Aβ1-42 oxygenation activity (Aβ1-42 [6]) | also measured |
| --- | --- | --- | --- | --- | --- | --- | --- | --- |
| CC1=CC(C)=[N+]2C1=Cc1c(C)cc(C)n1[B-]2(F)C(F)(F)C(F)(F)F (stereo not drawn) [Compound 4] | 503 | 509 | 0.79 | 72600 | – | – | – | – |
| CC1=CC(C)=[N+]2C1=Cc1c(C)cc(C)n1[B-]2(F)F [Compound 2, reference compound] | 502 | 509 | 0.80 | 81400 | – | – | – | time to substantial photofading [2]: about 30 min |
| Cc1cc2nc3c(=O)[nH]c(=O)nc-3n(C[C@H](O)[C@H](O)[C@H](O)CO)c2cc1C [riboflavin] | – | – | – | – | – | – | – | oxygenation activity toward Aβ1-42 (Aβ1-42 [3]): a certain oxygenation activity on all the peptides; oxygenation of the other (non-amyloid) peptides [4]: a certain oxygenation activity on all the peptides |
| CC1=CC(C)=[N+]2C1=Cc1c(C)cc(/C=C/c3cc4c5c(c3)CCCN5CCC4)n1[B-]2(F)C(F)(F)F (stereo not drawn) [Compound 11] | – | – | – | – | almost no observable change | 640 | helped oxygenate Aβ1-42 under the light irradiation | rate of oxygenation of Aβ1-42 (Aβ1-42 [6]): faster oxygenation rate than the compounds 8 |

Second part, led by results:

| Absorbance λmax [1] [nm] | Emission λmax [1] [nm] | Φfl (fluorescence quantum yield) [1] | ϵ (light absorption coefficient) [1] [M⁻¹ cm⁻¹] | shift of maximum absorption wavelength to the long-wavelength side [5] | Absorbance λmax [5] [nm] | SMILES | Aβ1-42 oxygenation activity (Aβ1-42 [6]) | also measured |
| --- | --- | --- | --- | --- | --- | --- | --- | --- |
| – | – | – | – | 20 nm | 660 | CC1=C(I)C(C)=[N+]2C1=Cc1c(C)cc(/C=C/c3cc4c5c(c3)CCCN5CCC4)n1[B-]2(F)C(F)(F)F (stereo not drawn) [Compound 12] | helped oxygenate Aβ1-42 under the light irradiation | Aβ1-42 oxygenation (oxygen adducts by MALDI-TOF MS) (Aβ1-42 [6]; compound 20 μM, Aβ1-42 20 μM, pH 7.4, 37° C., LED 595 nm, FIG. 4): there appeared ion peaks indicating the presence of oxygen adducts in a time-dependent manner; rate of oxygenation of Aβ1-42 (Aβ1-42 [6]): significantly faster |
| 502 | 509 | 0.80 | 74000 | – | – | CC1=CC(C)=[N+]2C1=Cc1c(C)cc(C)n1[B-]2(F)C(F)(F)F (stereo not drawn) [Compound 3] | – | – |
| – | – | – | – | 30 nm | 639 | CC1=CC(C)=[N+]2C1=Cc1c(C)cc(/C=C/c3cc4c5c(c3)CCCN5CCC4)n1[B-]2(F)F [Compound 8] | helped oxygenate Aβ1-42 under the light irradiation | – |
